In PubChem BioAssay AID248 (DTP/NCI, 2004):
Several values for one entry are separate records, joined by “and”; a condition that tells them apart may be missing. Equal entries are not always repeated. Toxic doses and inconclusive results are not listed.

System: L1210 leukemia ip in BDF1 mice, survival T/C
Test: NCI In Vivo Anticancer Drug Screen. Data for tumor model L1210 Leukemia (intraperitoneal) in B6D2F1 (BDF1) mice
Settings: endpoint: mean survival time, higher = longer survival
Method in brief: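 Value reflects the ratio of survival in compound-treated mice to survival in vehicle-treated controls, with both groups carrying the same transplanted tumor.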

[1] = dose: 100.0 mg/kg/injection, schedule: Q01DX001 (ip), vehicle: carboxymethylcellulose (CMC)
[2] = dose: 200.0 mg/kg/injection, schedule: Q01DX001 (ip), vehicle: carboxymethylcellulose (CMC)
[3] = dose: 400.0 mg/kg/injection, schedule: Q01DX001 (ip), vehicle: carboxymethylcellulose (CMC)
[4] = dose: 100.0 mg/kg/injection, schedule: Q04DX003 (ip), vehicle: saline with Tween-80
[5] = dose: 100.0 mg/kg/injection, schedule: Q01DX009 (ip), vehicle: Klucel (hydroxypropylcellulose) (HPC)
[6] = dose: 100.0 mg/kg/injection, schedule: Q04DX003 (ip), vehicle: Klucel (hydroxypropylcellulose) (HPC)
[7] = dose: 200.0 mg/kg/injection, schedule: Q04DX003 (ip), vehicle: Klucel (hydroxypropylcellulose) (HPC)
[8] = dose: 400.0 mg/kg/injection, schedule: Q04DX003 (ip), vehicle: Klucel (hydroxypropylcellulose) (HPC)
[9] = dose: 100.0 mg/kg/injection, schedule: Q04DX002 (ip), vehicle: Klucel (hydroxypropylcellulose) (HPC)
[10] = dose: 200.0 mg/kg/injection, schedule: Q04DX002 (ip), vehicle: Klucel (hydroxypropylcellulose) (HPC)
[11] = dose: 400.0 mg/kg/injection, schedule: Q04DX002 (ip), vehicle: Klucel (hydroxypropylcellulose) (HPC)
[12] = dose: 100.0 mg/kg/injection, schedule: Q01DX001 (ip), vehicle: saline
[13] = dose: 200.0 mg/kg/injection, schedule: Q01DX001 (ip), vehicle: saline
[14] = dose: 200.0 mg/kg/injection, schedule: Q01DX009 (ip), vehicle: Klucel (hydroxypropylcellulose) (HPC)
[15] = dose: 400.0 mg/kg/injection, schedule: Q01DX009 (ip), vehicle: Klucel (hydroxypropylcellulose) (HPC)

## CC1CN1P(=O)(OCCCl)N1CC1C (stereo not drawn)
dose: 20.0 mg/kg/injection, schedule: Q01DX Z (ip), vehicle: saline
  T/C: 97 % of control
dose: 40.0 mg/kg/injection, schedule: Q01DX Z (ip), vehicle: saline
  T/C: 100 % of control
dose: 80.0 mg/kg/injection, schedule: Q01DX Z (ip), vehicle: saline
  T/C: 108 % of control
dose: 160.0 mg/kg/injection, schedule: Q01DX Z (ip), vehicle: saline
  T/C: 117 % of control

## N=c1nc(N)c([N+](=O)[O-])c(N)n1O
[1]
  T/C: 100 % of control
[2]
  T/C: 97 % of control
[3]
  T/C: 100 % of control

## c1ccc2c(c1)Cc1ccccc1CN(CCNC1=NCCN1)C2
dose: 25.0 mg/kg/injection, schedule: Q01DX009 (ip), vehicle: saline with Tween-80
  T/C: 91 % of control
dose: 50.0 mg/kg/injection, schedule: Q01DX009 (ip), vehicle: saline with Tween-80
  T/C: 102 % of control
[4]
  T/C: 98 % of control

## OCCCOc1ccc(Cl)cc1Cl
dose: 100.0 mg/kg/injection, schedule: Q04DX002 (sc), vehicle: olive oil, sesame oil, peanut oil
  T/C: 100 % of control
dose: 200.0 mg/kg/injection, schedule: Q04DX002 (sc), vehicle: olive oil, sesame oil, peanut oil
  T/C: 95 % of control
dose: 400.0 mg/kg/injection, schedule: Q04DX002 (sc), vehicle: olive oil, sesame oil, peanut oil
  T/C: 110 % of control

## CN(C)C(=S)Sc1ccc([N+](=O)[O-])cc1
dose: 75.0 mg/kg/injection, schedule: Q01DX001 (ip), vehicle: other
  T/C: 103 % of control
dose: 150.0 mg/kg/injection, schedule: Q01DX001 (ip), vehicle: other
  T/C: 96 % of control
dose: 300.0 mg/kg/injection, schedule: Q01DX001 (ip), vehicle: other
  T/C: 91 % of control

## CCCCCCCCCCCCCCCCCCNC(=S)NC1CCCCC1
dose: 60.0 mg/kg/injection, schedule: Q01DX015 (ip), vehicle: carboxymethylcellulose (CMC)
  T/C: 98 % of control
dose: 120.0 mg/kg/injection, schedule: Q01DX015 (ip), vehicle: carboxymethylcellulose (CMC)
  T/C: 96 % of control
dose: 240.0 mg/kg/injection, schedule: Q01DX015 (ip), vehicle: carboxymethylcellulose (CMC)
  T/C: 96 % of control
dose: 480.0 mg/kg/injection, schedule: Q01DX015 (ip), vehicle: carboxymethylcellulose (CMC)
  T/C: 98 % of control

## COc1ccc(S(=O)(=O)NC(=O)NC23CC4CC(CC(C4)C2)C3)cc1
dose: 50.0 mg/kg/injection, schedule: Q01DX009 (ip), vehicle: Klucel (hydroxypropylcellulose) (HPC)
  T/C: 91 % of control
[5]
  T/C: 98 % of control
[6]
  T/C: 97 % of control
[7]
  T/C: 97 % of control
[8]
  T/C: 94 % of control

## CCC1C(=O)NC(=O)C1(C)c1ccccc1 (stereo not drawn)
dose: 25.0 mg/kg/injection, schedule: Q01DX009 (ip), vehicle: saline
  T/C: 115 % of control
dose: 25.0 mg/kg/injection, schedule: Q04DX003 (ip), vehicle: Klucel (hydroxypropylcellulose) (HPC)
  T/C: 120 % of control
dose: 50.0 mg/kg/injection, schedule: Q01DX009 (ip), vehicle: saline
  T/C: 103 % of control
dose: 50.0 mg/kg/injection, schedule: Q04DX003 (ip), vehicle: Klucel (hydroxypropylcellulose) (HPC)
  T/C: 101 % of control
dose: 100.0 mg/kg/injection, schedule: Q01DX009 (ip), vehicle: saline
  T/C: 98 % of control
[6]
  T/C: 101 % of control
dose: 200.0 mg/kg/injection, schedule: Q01DX009 (ip), vehicle: saline
  T/C: 110 % of control
[7]
  T/C: 93 % of control
dose: 400.0 mg/kg/injection, schedule: Q01DX009 (ip), vehicle: saline
  T/C: 86 % of control
[8]
  T/C: 104 % of control

## O=C(O)c1c2ccccc2nc2[nH]c(=O)[nH]c(=O)c12
[9]
  T/C: 97 % of control
[10]
  T/C: 108 % of control
[11]
  T/C: 108 % of control

## C(=Nc1cnc2sccc2c1)c1ccccc1
[6]
  T/C: 100 % of control
[7]
  T/C: 100 % of control
[8]
  T/C: 94 % of control

## CCCCCCCC/C=C\CCCCCCCC(=O)OCCCCCCCCCCCCC
dose: 100.0 mg/kg/injection, schedule: Q01DX009 (ip), vehicle: saline sonified
  T/C: 91 % of control
dose: 200.0 mg/kg/injection, schedule: Q01DX009 (ip), vehicle: saline sonified
  T/C: 102 % of control
dose: 400.0 mg/kg/injection, schedule: Q01DX009 (ip), vehicle: saline sonified
  T/C: 93 % of control

## O=C(NP(=O)(N1CC1)N1CC1)OCCCCCCOC(=O)NP(=O)(N1CC1)N1CC1
[1]
  T/C: 101 % of control
[2]
  T/C: 113 % of control
[3]
  T/C: 108 % of control

## Cc1ccc(S(=O)(=O)N2/C(=C/c3ccccc3)C(=O)c3ccccc3-c3ccccc32)cc1
[12]
  T/C: 96 % of control
[13]
  T/C: 91 % of control
dose: 400.0 mg/kg/injection, schedule: Q01DX001 (ip), vehicle: saline
  T/C: 90 % of control

## N=C(N)CCN
[12]
  T/C: 98 % of control
[13]
  T/C: 102 % of control

## CCOC(=O)C/C(C)=N/N=C(\CCOC)COC
[1]
  T/C: 87 % of control
[2]
  T/C: 103 % of control
[3]
  T/C: 103 % of control

## CCCCCCCC(=O)Nc1cc(C(F)(F)F)ccc1Cl
[4]
  T/C: 92 % of control
dose: 200.0 mg/kg/injection, schedule: Q04DX003 (ip), vehicle: saline with Tween-80
  T/C: 98 % of control
dose: 400.0 mg/kg/injection, schedule: Q04DX003 (ip), vehicle: saline with Tween-80
  T/C: 87 % of control

## COC(=O)c1ccccc1NC(=S)NC(=O)c1ccc(OC)cc1
[5]
  T/C: 93 % of control
[6]
  T/C: 91 % of control
[14]
  T/C: 98 % of control
[7]
  T/C: 104 % of control
[15]
  T/C: 95 % of control
[8]
  T/C: 96 % of control

## O=C(Oc1ccc(Cl)cc1)c1ccccc1
[5]
  T/C: 95 % of control
[6]
  T/C: 103 % of control
[14]
  T/C: 101 % of control
[7]
  T/C: 105 % of control
[15]
  T/C: 101 % of control
[8]
  T/C: 92 % of control

## O=C(O)c1ccc(NO)cc1
dose: 24.0 mg/kg/injection, schedule: Q01DX Z (ip), vehicle: methylcellulose (MC)
  T/C: 103 % of control
dose: 36.0 mg/kg/injection, schedule: Q01DX Z (ip), vehicle: methylcellulose (MC)
  T/C: 100 % of control
dose: 55.0 mg/kg/injection, schedule: Q01DX Z (ip), vehicle: methylcellulose (MC)
  T/C: 102 % of control
dose: 83.0 mg/kg/injection, schedule: Q01DX Z (ip), vehicle: methylcellulose (MC)
  T/C: 93 % of control

## O=C(CCl)N1CCC(C(O)c2cc3ccccc3n2S(=O)(=O)c2ccccc2)CC1 (stereo not drawn)
dose: 100.0 mg/kg/injection, schedule: Q04DX002 (ip), vehicle: saline with Tween-80
  T/C: 94 % of control
dose: 200.0 mg/kg/injection, schedule: Q04DX002 (ip), vehicle: saline with Tween-80
  T/C: 94 % of control
dose: 400.0 mg/kg/injection, schedule: Q04DX002 (ip), vehicle: saline with Tween-80
  T/C: 97 % of control

## S=C=Nc1cccc(Cl)c1
dose: 75.0 mg/kg/injection, schedule: Q01DX001 (ip), vehicle: saline
  T/C: 100 % of control
dose: 150.0 mg/kg/injection, schedule: Q01DX001 (ip), vehicle: saline
  T/C: 96 % of control

## O=C1C(N2CCOCC2)=C(c2ccccc2)c2ccccc21
dose: 7.3 mg/kg/injection, schedule: Q01DX009 (ip), vehicle: other
  T/C: 94 % of control and 103 % of control
dose: 11.0 mg/kg/injection, schedule: Q01DX009 (ip), vehicle: other
  T/C: 96 % of control and 100 % of control
dose: 12.5 mg/kg/injection, schedule: Q01DX009 (ip), vehicle: other
  T/C: 350 % of control
dose: 16.5 mg/kg/injection, schedule: Q01DX009 (ip), vehicle: other
  T/C: 96 % of control and 100 % of control
dose: 37.5 mg/kg/injection, schedule: Q01DX009 (ip), vehicle: other
  T/C: 96 % of control and 101 % of control
dose: 50.0 mg/kg/injection, schedule: Q01DX009 (ip), vehicle: other
  T/C: 98 % of control
dose: 100.0 mg/kg/injection, schedule: Q01DX009 (ip), vehicle: other
  T/C: 88 % of control
dose: 200.0 mg/kg/injection, schedule: Q01DX009 (ip), vehicle: other
  T/C: 93 % of control

## O=S1(=O)Cc2ccccc2-c2ccccc2C1
dose: 100.0 mg/kg/injection, schedule: Q04DX002 (ip), vehicle: gum acacia
  T/C: 103 % of control
dose: 200.0 mg/kg/injection, schedule: Q04DX002 (ip), vehicle: gum acacia
  T/C: 103 % of control
dose: 400.0 mg/kg/injection, schedule: Q04DX002 (ip), vehicle: gum acacia
  T/C: 106 % of control

## CC(C)OC(=O)COc1cc(F)c(Cl)cc1Cl
[9]
  T/C: 102 % of control
[10]
  T/C: 95 % of control
[11]
  T/C: 102 % of control
